Source: US20110086853A1, “Therapeutic Compounds” (priority 2009, published 2011)

Molecular target: T1, Human CB1 receptor (Homo sapiens, UniProt P21554)
T1 construct: purchased Receptor Biology
Assay: hCB1 GTPγS binding
Format: biochemical
Details: maximal stimulated binding determined with 10 μM Win 55,212-2
Method: hCB1 and hCB2 GTPγS Binding
Human CB1 receptor from Receptor Biology (hCB1) or human CB2 receptor membranes (BioSignal) are thawed at 37° C., passed 3 times through a 25-gauge blunt-end needle and diluted in the GTPγS binding buffer (50 mM Hepes, 20 mM NaOH, 100 mM NaCl, 1 mM EDTA, 5 mM MgCl2, pH 7.4, 0.1% BSA). The EC50 and Emax of the compounds of the invention are evaluated from 10-point dose-response curves done in 300 μl with the appropriate amount of membrane protein and 100000-130000 dpm of GTPg^35S per well (0.11-0.14 nM). The basal and maximal stimulated binding is determined in absence and presence of 1 μM (hCB2) or 10 μM (hCB1) Win 55, 212-2 respectively. The membranes are pre-incubated for 5 minutes with 56.25 μM (hCB2) or 112.5 μM (hCB1) GDP prior to distribution in plates (15 μM (hCB2) or 30 μM (hCB1) GDP final). The plates are vortexed and incubated for 60 minutes at room temperature, filtered on Unifilters GF/B (presoaked in water) with the Tomtec or Packard harvester using 3 ml of wash buffer (50 mM Tris, 5 mM MgCl2, 50 mM NaCl, pH 7.0). The filters are dried for 1 hour at 55° C. The radioactivity (cpm) is counted in a TopCount (Packard) after adding 65 μl/well of MS-20 scintillation liquid. Antagonist reversal studies are done in the same way except that (a) an agonist dose-response curve is done in the presence of a constant concentration of antagonist, or (b) an antagonist dose-response curve is done in the presence of a constant concentration of agonist.

T1 sequence (P21554 whole entry): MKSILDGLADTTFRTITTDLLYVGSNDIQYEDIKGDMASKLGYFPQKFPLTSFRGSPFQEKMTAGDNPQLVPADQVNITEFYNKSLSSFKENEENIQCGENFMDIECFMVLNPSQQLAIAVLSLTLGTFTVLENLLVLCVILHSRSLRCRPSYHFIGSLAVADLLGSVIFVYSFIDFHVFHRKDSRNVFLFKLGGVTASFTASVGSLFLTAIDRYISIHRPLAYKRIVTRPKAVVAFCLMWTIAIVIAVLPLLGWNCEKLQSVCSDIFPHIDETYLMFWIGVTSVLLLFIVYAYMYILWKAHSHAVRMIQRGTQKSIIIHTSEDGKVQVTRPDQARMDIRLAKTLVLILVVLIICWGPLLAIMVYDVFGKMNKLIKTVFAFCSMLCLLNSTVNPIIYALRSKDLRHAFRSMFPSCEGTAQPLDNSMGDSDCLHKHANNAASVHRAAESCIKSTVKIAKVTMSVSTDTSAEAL

Compound: CC(C)(C)c1nc2cc(S(=O)(=O)n3cc(C(=O)NC4CC4)cn3)ccc2n1CC1CCC(F)(F)CC1 [1-({2-tert-Butyl-1-[(4,4-difluorocyclohexyl)methyl]-1H-benzimidazol-5-yl}sulfonyl)-N-cyclopropyl-1H-pyrazole-4-carboxamide]
- Emax: 122%

Compound: CC(C)NC(=O)c1cnn(S(=O)(=O)c2ccc3c(c2)nc(C(C)(C)C)n3CC2CCC(F)(F)CC2)c1 [1-({2-tert-Butyl-1-[(4,4-difluorocyclohexyl)methyl]-1H-benzimidazol-5-yl}sulfonyl)-N-isopropyl-1H-pyrazole-4-carboxamide]
- Emax: 125%

Compound: CNC(=O)c1cnn(S(=O)(=O)c2ccc3c(c2)nc(C(C)(C)C)n3CC2CCC(F)(F)CC2)c1 [1-({2-tert-Butyl-1-[(4,4-difluorocyclohexyl)methyl]-1H-benzimidazol-5-yl}sulfonyl)-N-methyl-1H-pyrazole-4-carboxamide]
- Emax: 118%

Compound: CC(C)(C)c1nc2cc(S(=O)(=O)n3ccc(C(=O)NC4CC4)c3)ccc2n1CC1CCOCC1 [1-{[2-tert-Butyl-1-(tetrahydro-2H-pyran-4-ylmethyl)-1H-benzimidazol-5-yl]sulfonyl}-N-cyclopropyl-1H-pyrrole-3-carboxamide]
- Emax: 142%

Compound: CCNC(=O)c1ccn(S(=O)(=O)c2ccc3c(c2)nc(C(C)(C)C)n3CC2CCOCC2)c1 [1-{[2-tert-butyl-1-(tetrahydro-2H-pyran-4-ylmethyl)-1H-benzimidazol-5-yl]sulfonyl}-N-ethyl-1H-pyrrole-3-carboxamide]
- Emax: 138%

Compound: CC(C)(C)c1nc2cc(S(=O)(=O)N3CCOC(C(=O)NC4CC4)C3)ccc2n1CC1CCC(F)(F)CC1 (centres unmarked) [4-({2-tert-Butyl-1-[(4,4-difluorocyclohexyl)methyl]-1H-benzimidazol-5-yl}sulfonyl)-N-cyclopropylmorpholine-2-carboxamide]
- Emax: 120%

Compound: CCNC(=O)[C@@H]1CN(S(=O)(=O)c2ccc3c(c2)nc(C(C)(C)C)n3CC2CCC(F)(F)CC2)CCO1 [(2S)-4-((2-tert-butyl-1-[(4,4-difluorocyclohexyl)methyl]-1H-benzimidazol-5-yl}sulfonyl)-N-ethylmorpholine-2-carboxamide]
- Emax: 156%

Compound: CC(C)(C)c1nc2cc(S(=O)(=O)N3CCC[C@H](C(=O)NC4CC4)C3)ccc2n1CC1CCC(F)(F)CC1 [(3S)-1-({2-tert-Butyl-1-[(4,4-difluorocyclohexyl)methyl]-1H-benzimidazol-5-yl}sulfonyl)-N-cyclopropylpiperidine-3-carboxamide]
- Emax: 136%

Compound: CCCNC(=O)[C@H]1CCCN(S(=O)(=O)c2ccc3c(c2)nc(C(C)(C)C)n3CC2CCC(F)(F)CC2)C1 [(3S)-1-({2-tert-Butyl-1-[(4,4-difluorocyclohexyl)methyl]-1H-benzimidazol-5-yl}sulfonyl)-N-propylpiperidine-3-carboxamide]
- Emax: 134%

Compound: CCNC(=O)c1cnn(S(=O)(=O)c2ccc3c(c2)nc(C(C)(C)C)n3CC2CCOCC2)c1 [Example 27, 1-{[2-tert-Butyl-1-(tetrahydro-2H-pyran-4-ylmethyl)-1H-benzimidazol-5-yl]sulfonyl}-N-ethyl-1H-pyrazole-4-carboxamide]
- Emax: 127%

Compound: CC(F)(F)c1nc2cc(S(=O)(=O)n3ccc(C(=O)NC4CC4)c3)ccc2n1CC1CCOCC1 [N-Cyclopropyl-1-{[2-(1,1-difluoroethyl)-1-(tetrahydro-2H-pyran-4-ylmethyl)-1H-benzimidazol-5-yl]sulfonyl}-1H-pyrrole-3-carboxamide]
- Emax: 119%
